The results in this text go back to paper PMC7613620, “Reaction hijacking of tyrosine tRNA synthetase as a whole-of-life-cycle antimalarial strategy” (Science (New York, N.Y.), 2022).

A short description of data set [1]: Caco2 permeability. It counts as in vitro ADME. To be noted: human, Caco-2. On the technique in general: Caco-2 cells form a polarised layer with tight junctions and transporters.
The test system of data set [2] is P. falciparum Dd2 PfYRSS234C mutant lines. Briefly: 72-h sensitivity of CRISPR-edited PfYRSS234C clones. It counts as cell-based, Plasmodium falciparum. To be noted: for IC50: Plasmodium falciparum, DD2, 72 h, 72-h exposure. The procedure:
(§1) 700 the drug plate. Lowest drug treatment and a lethal dose of chloroquine (200 nM) served as reference
(§2) 701 controls. Growth inhibition was analysed after 72 h using the Renilla-Glo(R) Luciferase Assay System (ref
(§3) 702 no E2750 Promega) and the GloMax® Discover Multimode Microplate Reader (Promega), and IC50 values
703 were obtained from corrected dose-response curves using GraphPad Prism (version 8; GraphPad Software).
705 Generation of PfYRSS234C transfectants
706 CRISPR/Cas9 was used to generate parasites encoding the S234C mutation in exon 2 of PfYRS, as shown
707 in Suppl Figure 6. Two guide RNAs (gRNA1: […] and gRNA2:
708 […]) were selected using Benchling (benchling.com), and cloned into the
709 pDC2-coCas9-gRNA plasmid essentially as described previously (58). A donor template of 645 bp,
710 encompassing the majority of the 708 bp exon 2, was synthesized (ThermoFisher) and cloned into the
711 AatII/EcoRI sites of both the pDC2-coCas9-gRNA1 and pDC2-coCas9-gRNA2 plasmids. In addition to
712 the TCC>TGC (S234C) mutation, additional silent shield mutations were introduced to prevent gRNA-
713 Cas9 complex binding, as shown in Suppl Figure 6. Ring-stage P. falciparum parasites (Dd2 strain) at 10%
714 parasitemia (150 µL of packed cells) were transfected with 50 µg of plasmid DNA using a BioRad Gene
715 Pulser II (310 V, 950 µF), and selected with 5 nM WR99210 (Jacobus Pharmaceuticals) for 8 days, after
716 which culture was continued without drug pressure until transfectants were obtained. Clones of the
717 PfYRSS234C mutant parasites were isolated by limiting dilution and verified by Sanger sequencing. […]
(§4) 729 Cam 3.II_Rev (25) trophozoite-infected RBCs (25-30 h p.i.) were incubated with inhibitor for 3 h at 10%
(§5) 730 hematocrit and 5% parasitemia. The RBC pellet was washed 3 x in PBS + cOmplete. Cells were centrifuged
(§6) 731 at 380 x g for 5 min and the pelleted cells lysed by resuspension in PBS + 0.05% saponin for 5 min on ice.

The test system of data set [3] is P. falciparum Dd2. Briefly: 72-h sensitivity of wildtype Dd2 parent line. It counts as cell-based. To be noted: Plasmodium falciparum, 72-h exposure. The procedure:
as §1, §2, §3
703 were obtained from corrected dose-response curves using GraphPad Prism (version 8; GraphPad Software). […]
as §4, §5, §6

The target of data set [4] is PfYRS (Plasmodium falciparum, UniProt Q8IAR7). Briefly: ATP consumption by PfYRS (Kinase-Glo). It counts as biochemical. The procedure: 804 An intron was detected in the PftRNATyr sequence, that was not indicated in PlasmoDB. A T7 RNA
PfYRS, sequence (Q8IAR7 entry or part of it): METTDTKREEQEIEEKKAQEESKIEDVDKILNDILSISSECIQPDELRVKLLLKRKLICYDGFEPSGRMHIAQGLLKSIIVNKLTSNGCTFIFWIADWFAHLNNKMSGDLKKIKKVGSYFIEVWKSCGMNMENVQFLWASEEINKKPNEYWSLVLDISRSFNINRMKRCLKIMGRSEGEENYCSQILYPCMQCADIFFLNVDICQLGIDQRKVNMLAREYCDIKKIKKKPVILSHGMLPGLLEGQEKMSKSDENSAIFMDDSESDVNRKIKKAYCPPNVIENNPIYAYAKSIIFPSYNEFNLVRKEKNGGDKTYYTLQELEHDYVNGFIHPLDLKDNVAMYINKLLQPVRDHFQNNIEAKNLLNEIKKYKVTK
805 polymerase promoter sequence was added to the 5’ end of the DNA sequence of P. falciparum and H.
806 sapiens tRNATyr. This DNA template and its complementary strand were custom-synthesized by Sigma-
807 Aldrich. Two oligonucleotides were annealed at 95°C for 5 min and the double-stranded DNA template
808 was used for in vitro transcription. The transcription reaction was incubated at 37°C overnight. The reaction
809 mixture consists of template DNA, T7 RNA polymerase and NTP mix as per manufacturer's instructions
810 (HiScribe™ T7 Quick High Yield RNA Synthesis Kit, NEB). On the following day, the reaction mixture
811 was treated with DNase I at 37°C for 15 min. tRNA was purified using RNA clean-up spin columns
812 (Monarch® RNA Cleanup Kit, NEB) to remove contaminants from the transcription reaction. […]
820 was sealed and analysed using StepOnePlus Real-Time PCR system (Applied Biosystems). […]
822 as the first derivative curve of the raw fluorescence values. […]
824 values were calculated from DTm using the equation: ln(KD/[L]) = -131.5 x (∆Tm/Tm,apo) - 1.9, where [L] […]
828 Consumption of ATP by YRS was measured using a luciferase-based assay as per the manufacturer’s […]
836 The aminoacylation activity of YRS was measured by the incorporation of tritiated L-tyrosine into tRNATyr […]
Background: Kinase-Glo measures the ATP left after a reaction by luminescence.

Like-named read-outs stand apart in the source and are kept apart here. A value given as a limit tells only on which side of the number the result lay.

Take `Nc1ncnc2c1c(OC(F)F)nn2[C@@H]1O[C@H](COS(N)(=O)=O)[C@@H](O)[C@H]1O` [ML901]: in data set [1] (A to B), the Papp A→B (commonly the apparent permeability from the apical to the basolateral side of a cell layer) amounted to 0.7 ×10⁻⁶ cm/s. The Papp B→A (usually the apparent permeability from the basolateral to the apical side of a cell layer) in data set [1] (B to A) amounted to 0.82 ×10⁻⁶ cm/s. Further, the “decreased sensitivity of PfYRSS234C transfectants” value in data set [2] (Dd2 parent transfectants harboring PfYRSS234C) is listed as 10 fold. Further, the IC50 (commonly the concentration that gives 50% inhibition) in data set [2] (Mutant E12 (PfYRSS234C)) was 22 ± 1 nM; in data set [2] (Mutant F5 (PfYRSS234C)), 22 ± 3 nM; in data set [2] (Mutant G12 (PfYRSS234C)), 20 ± 1 nM; in data set [3], 2.2 ± 0.3 nM; in data set [4] (in the absence of cognate tRNATyr, read-out: IC50 (-PftRNATyr), ATP consumption by PfYRS), more than 500 µM; in data set [4] (in the presence of cognate tRNATyr, read-out: IC50 (+PftRNATyr), ATP consumption by PfYRS) it was 25 µM.
